# Reference: paper PMC4300089, “Structure-Guided Design of Selective Epac1 and Epac2 Agonists” (PLoS Biology, 2015)
# Where a chain is given by its changes, count along the chain named. pEC50: −log10 of the molar value.
# Tests used:
# Type in all cases: biochemical
# PKA-Iβ = target: T1, PKA-Iβ (Homo sapiens, UniProt P31321); test: PKA activity assay, PKA-Iβ; settings: for A (PKA activity): PKAIβ
# T1 construct: made in house
# Protocol: (§1) The recombinant human PKA catalytic subunit (Cα1) and the four human PKA regulatory subunits (RIα, RIβ, RIIα, RIIβ) were expressed, purified, and characterized as described. […] PKA holoenzymes were formed by mixing the R- and C-subunit at a molar ratio of 1.2:1 and extensive dialysis against 20 mM MOPS (pH 7.0), 150 mM NaCl, 2.5 mM β-mercaptoethanol, supplemented with 1 mM ATP and 10 mM MgCl2 for PKA-I at 4°C overnight. PKA holoenzymes were used at about 20 nM for the activation assay. The apparent activation constants (Kact) were determined by fitting the concentration-dependent activity to a sigmoid dose-response model.
# Epac2^Δ280 = target: T2, Epac2^Δ280 (Mus musculus, UniProt Q9EQZ6); test: Epac activation assay (Rap1B•mGDP fluorescence nucleotide exchange), Epac2^Δ280
# T2 construct: made in house
# T2 sequence (Q9EQZ6 281-993 isoform Q9EQZ6-3): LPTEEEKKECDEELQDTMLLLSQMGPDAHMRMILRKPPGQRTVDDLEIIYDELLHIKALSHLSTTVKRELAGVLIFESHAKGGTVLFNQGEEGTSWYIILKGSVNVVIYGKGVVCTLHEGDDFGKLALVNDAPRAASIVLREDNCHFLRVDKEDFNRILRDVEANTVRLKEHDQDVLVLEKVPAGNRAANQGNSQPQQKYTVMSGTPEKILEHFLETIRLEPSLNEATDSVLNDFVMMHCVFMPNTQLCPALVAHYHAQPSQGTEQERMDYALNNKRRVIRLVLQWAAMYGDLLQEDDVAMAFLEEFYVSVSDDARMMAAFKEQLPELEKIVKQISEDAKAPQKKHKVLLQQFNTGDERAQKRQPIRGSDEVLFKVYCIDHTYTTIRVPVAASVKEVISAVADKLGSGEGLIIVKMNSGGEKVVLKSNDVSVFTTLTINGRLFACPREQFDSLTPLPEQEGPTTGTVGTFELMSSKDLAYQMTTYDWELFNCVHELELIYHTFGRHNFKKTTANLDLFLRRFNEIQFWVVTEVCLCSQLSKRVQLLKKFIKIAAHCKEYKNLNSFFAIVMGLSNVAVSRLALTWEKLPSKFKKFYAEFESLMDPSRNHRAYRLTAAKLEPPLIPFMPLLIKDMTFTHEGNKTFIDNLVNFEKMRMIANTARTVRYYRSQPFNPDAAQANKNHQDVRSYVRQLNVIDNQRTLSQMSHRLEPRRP
# Protocol: (§2) Murine Epac2 was used as all previous structural studies were performed with it.
# (§3) The activity of Epac was determined by a fluorescence assay. […] The fluorescence intensity of Rap1B•mGDP is approximately twice that of free mGDP, and thus, nucleotide exchange can be observed as a decay in fluorescence upon the addition of excess unlabeled GDP.
# Epac2^Δ280,K450E = target: T3, Epac2^Δ280,K450E (Mus musculus, UniProt Q9EQZ6, K468E); test: Epac activation assay, Epac2 K450E mutant
# T3 construct: made in house
# T3 sequence (Q9EQZ6 281-993 isoform Q9EQZ6-3 K450E): T2 sequence (Q9EQZ6 281-993 isoform Q9EQZ6-3) with K170E
# Protocol: as §2, §3
# PKA-IIβ = target: T4, PKA-IIβ (Homo sapiens, UniProt P31323); test: PKA activity assay, PKA-IIβ; settings: for A (PKA activity): PKAIIβ
# T4 construct: made in house
# T4 sequence (P31323 whole entry): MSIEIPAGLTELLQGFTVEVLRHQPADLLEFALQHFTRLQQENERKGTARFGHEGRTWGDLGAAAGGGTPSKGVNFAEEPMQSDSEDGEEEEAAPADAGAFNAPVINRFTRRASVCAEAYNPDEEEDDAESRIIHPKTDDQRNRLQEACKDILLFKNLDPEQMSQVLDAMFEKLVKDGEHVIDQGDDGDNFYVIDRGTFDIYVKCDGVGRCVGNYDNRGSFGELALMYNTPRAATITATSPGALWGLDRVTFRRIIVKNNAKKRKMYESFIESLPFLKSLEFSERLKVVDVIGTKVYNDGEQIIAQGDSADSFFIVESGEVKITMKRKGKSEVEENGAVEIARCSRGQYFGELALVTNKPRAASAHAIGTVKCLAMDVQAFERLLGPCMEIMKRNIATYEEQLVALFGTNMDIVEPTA
# Protocol: as §1
# T1 sequence (P31321 whole entry): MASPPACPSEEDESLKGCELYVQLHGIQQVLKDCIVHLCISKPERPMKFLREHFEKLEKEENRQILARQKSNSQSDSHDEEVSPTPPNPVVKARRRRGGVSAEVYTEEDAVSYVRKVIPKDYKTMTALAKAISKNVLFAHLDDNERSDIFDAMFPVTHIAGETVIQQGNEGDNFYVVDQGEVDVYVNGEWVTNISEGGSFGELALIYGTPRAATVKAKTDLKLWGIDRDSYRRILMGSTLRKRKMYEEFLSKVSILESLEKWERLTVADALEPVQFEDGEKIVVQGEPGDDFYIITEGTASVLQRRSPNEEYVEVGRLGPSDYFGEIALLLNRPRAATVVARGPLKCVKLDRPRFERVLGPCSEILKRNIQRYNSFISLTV
smiles,measurement,setting,value
"Nc1ncnc2c1nc(SCc1ccccc1)n2[C@@H]1O[C@@H]2CO[P@](O)(=S)O[C@H]2[C@H]1O [S-220, Sp-8-BnT-cAMPS]",Kact compared to cAMP (times higher),PKA-Iβ; PKA-Iβ,three to eight times higher
same,pEC50,"PKA-Iβ; PKA-Iβ, read-out: Kact",6.54
same,A (PKA activity),PKA-Iβ; concentration 1 μM,2.04E+01 U/mg
same,A (PKA activity),PKA-Iβ; concentration 1.00E+01 μM,2.34E+01 U/mg
same,A (PKA activity),PKA-Iβ; concentration 1.00E-01 μM,7.7375 U/mg
same,A (PKA activity),PKA-Iβ; concentration 1.00E-02 μM,4.3125 U/mg
same,A (PKA activity),PKA-Iβ; concentration 1.00E-03 μM,4.35 U/mg
same,A (PKA activity),PKA-Iβ; concentration 1.00E-05 μM,4.525 U/mg
same,A (PKA activity),PKA-Iβ; concentration 1.70E-01 μM,1.11E+01 U/mg
same,A (PKA activity),PKA-Iβ; concentration 2.50E+02 μM,2.32E+01 U/mg
same,A (PKA activity),PKA-Iβ; concentration 2.50E-01 μM,1.38E+01 U/mg
same,A (PKA activity),PKA-Iβ; concentration 5.00E-01 μM,1.59E+01 U/mg
same,kobs,Epac2^Δ280; 0.04 μM compound,0.000468 s⁻¹
same,kobs,Epac2^Δ280; 0.05 μM compound,0.000508 s⁻¹
same,kobs,Epac2^Δ280; 0.06 μM compound,0.000631 s⁻¹
same,kobs,Epac2^Δ280; 0.07 μM compound,0.000864 s⁻¹
same,kobs,Epac2^Δ280; 0.08 μM compound,0.000721 s⁻¹
same,kobs,Epac2^Δ280; 0.1 μM compound,0.000827 s⁻¹
same,kobs,Epac2^Δ280; 0.2 μM compound,0.00131 s⁻¹
same,kobs,Epac2^Δ280; 0.3 μM compound,0.00149 s⁻¹
same,kobs,Epac2^Δ280; 0.4 μM compound,0.00167 s⁻¹
same,kobs,Epac2^Δ280; 0.5 μM compound,0.00155 s⁻¹
same,kobs,Epac2^Δ280; 0.6 μM compound,0.00184 s⁻¹
same,kobs,Epac2^Δ280; 0.7 μM compound,0.00188 s⁻¹
same,AC50,Epac2^Δ280; Epac2^Δ280,100 nM
same,Rel. kmax,"Epac2^Δ280; Epac2^Δ280, maximal activity relative to cAMP",7.7
same,kobs,"Epac2^Δ280,K450E; 0.001 μM compound",3.4e-05 s⁻¹
same,kobs,"Epac2^Δ280,K450E; 0.003 μM compound",4.1e-05 s⁻¹
same,kobs,"Epac2^Δ280,K450E; 0.005 μM compound",4.7e-05 s⁻¹
same,kobs,"Epac2^Δ280,K450E; 0.008 μM compound",5.6e-05 s⁻¹
same,kobs,"Epac2^Δ280,K450E; 0.01 μM compound",7.9e-05 s⁻¹
same,kobs,"Epac2^Δ280,K450E; 0.03 μM compound",0.000149 s⁻¹
same,kobs,"Epac2^Δ280,K450E; 0.04 μM compound",0.000174 s⁻¹
same,kobs,"Epac2^Δ280,K450E; 0.05 μM compound",0.000201 s⁻¹
same,kobs,"Epac2^Δ280,K450E; 0.06 μM compound",0.000239 s⁻¹
same,kobs,"Epac2^Δ280,K450E; 0.07 μM compound",0.000269 s⁻¹
same,kobs,"Epac2^Δ280,K450E; 0.08 μM compound",0.000291 s⁻¹
same,kobs,"Epac2^Δ280,K450E; 0.1 μM compound",0.000329 s⁻¹
same,kobs,"Epac2^Δ280,K450E; 0.2 μM compound",0.000621 s⁻¹
same,kobs,"Epac2^Δ280,K450E; 0.3 μM compound",0.000717 s⁻¹
same,kobs,"Epac2^Δ280,K450E; 0.4 μM compound",0.000786 s⁻¹
same,kobs,"Epac2^Δ280,K450E; 0.5 μM compound",0.000805 s⁻¹
same,kobs,"Epac2^Δ280,K450E; 0.6 μM compound",0.000891 s⁻¹
same,kobs,"Epac2^Δ280,K450E; 0.7 μM compound",0.000938 s⁻¹
same,kobs,"Epac2^Δ280,K450E; 0.8 μM compound",0.000942 s⁻¹
same,kobs,"Epac2^Δ280,K450E; 1 μM compound",0.000907 s⁻¹
same,kobs,"Epac2^Δ280,K450E; 2 μM compound",0.00111 s⁻¹
same,kobs,"Epac2^Δ280,K450E; 3 μM compound",0.00113 s⁻¹
same,kobs,"Epac2^Δ280,K450E; 4 μM compound",0.00112 s⁻¹
same,kobs,"Epac2^Δ280,K450E; 5 μM compound",0.00108 s⁻¹
same,kobs,"Epac2^Δ280,K450E; 6 μM compound",0.00112 s⁻¹
same,kobs,"Epac2^Δ280,K450E; 7 μM compound",0.00112 s⁻¹
same,kobs,"Epac2^Δ280,K450E; 8 μM compound",0.00112 s⁻¹
same,kobs,"Epac2^Δ280,K450E; 10 μM compound",0.00104 s⁻¹
same,Kact compared to cAMP (times higher / affinity reduced),PKA-IIβ; PKA-IIβ,comparable affinities
same,pEC50,"PKA-IIβ; PKA-IIβ, read-out: Kact",6.68
same,A (PKA activity),PKA-IIβ; concentration 1 μM,1.92E+01 U/mg
same,A (PKA activity),PKA-IIβ; concentration 1.00E+01 μM,2.49E+01 U/mg
same,A (PKA activity),PKA-IIβ; concentration 1.00E-01 μM,1.08E+01 U/mg
same,A (PKA activity),PKA-IIβ; concentration 1.00E-02 μM,5.378 U/mg
same,A (PKA activity),PKA-IIβ; concentration 1.00E-03 μM,4.482 U/mg
same,A (PKA activity),PKA-IIβ; concentration 1.00E-04 μM,4.9341 U/mg
same,A (PKA activity),PKA-IIβ; concentration 1.00E-05 μM,2.8563 U/mg
same,A (PKA activity),PKA-IIβ; concentration 2.50E+02 μM,2.44E+01 U/mg
same,A (PKA activity),PKA-IIβ; concentration 2.50E-01 μM,1.60E+01 U/mg
